Data: patent publication EP4420661B1, “SMALL MOLECULES TARGETING GLYCOPROTEIN VI AS ANTIPLATELET AGENTS FOR USE IN THE PREVENTION AND/OR TREATMENT OF THROMBOSIS AND ASSOCIATED PATHOLOGIES” (Universidade de Santiago de Compostela, priority 2023, dated 2024)

Columns and labels:
Assay type in all cases: in vitro ADME
[1] = plasma protein binding, Rapid Equilibrium Dialysis (RED), dog; settings: 4h at 37°C
Experimental: (§1) Plasma from Seralab was employed in the assay and was carried out by employing Rapid Equilibrium Dialysis (RED) from Thermo Scientific.
(§2) The compounds were dissolved at 5 µM in plasma and added to the corresponding insert of the RED device. Dialysis buffer was added to the corresponding insert of the RED device. Plate was incubated for 4h at 37°C.
(§3) After the incubation period 50 µL aliquots of each chamber were transferred to empty vials. 50 µL of dialysis buffer were added to the plasma samples and 50 µL of plasma were added to the buffer samples. 300 µL of acetonitrile were added to all the samples and centrifuged at 4000 rpm 100 µL aliquots of the supernatants were transferred to a LC analysis plate. Samples were analyzed in a UPLC/MS/MS. Stationary phase: Acquity UPLC® BEHC18 1,7 µm (2.1 mm x 50 mm) (Waters). Gradient: A (H2O + 0.1% Formic acid); B (ACN + 0.1% Formic acid); Flow: 0.6mL/min Table 8: UPLC gradient / Protein binding assay
(§4) The chromatographic equipment employed was an ACQUITY UPLC / Xevo TQD System. Compound concentrations were calculated from the MS peak areas. Table 9: Plasma protein binding of the compounds of formula (I) in rat, mice, dogs and humans / (*) low recovery

Plasma protein [2] = assay: as above; settings: 5 µM, 4h at 37°C
Experimental: as §1, §2, §3, §4

[3] = plasma protein binding, Rapid Equilibrium Dialysis (RED), human; settings: 4h at 37°C
Experimental: as §1, §2, §3, §4

Plasma protein [4] = assay: as above; settings: 5 µM, 4h at 37°C
Experimental: as §1, §2, §3, §4

[5] = plasmatic stability, human plasma; settings: for Plasmatic stability: Human plasma
Experimental: Rat, human, mouse and dog plasma pooled from healthy donors extracted in citrate tubes was employed in the assay.
[…] Then 300µl Acetonitrile were added for precipitating plasma protein, and the plate was centrifuged at 4000 g for 60 min at 4°C.
Supernatant was taken and analyzed by UPLC/MS/MS for sample quantification. Stationary phase: Reverse phase ACQUITY BEH C18 1.7µm 2.1x50mm (Waters) Mobile phase: 0.1% Formic acid water/0.1% formic acid in acetonitrile Gradient: Table 4: UPLC gradient / Plasmatic stability assay
The chromatographic equipment employed was an UPLC QSM Waters Acquity. Compound concentrations were calculated from the MS peak areas.

[6] = plasma protein binding, Rapid Equilibrium Dialysis (RED), mouse; settings: 4h at 37°C, (*) low recovery for (If)
Experimental: as §1, §2, §3, §4

Plasma protein [7] = assay: as above; settings: 5 µM, 4h at 37°C, (*) low recovery for (If)
Experimental: as §1, §2, §3, §4

CYP2D6 = target: T1, CYP2D6 (Homo sapiens, UniProt P10635); assay: CYP inhibition, liver microsomes, substrate cocktail
T1 construct: 0.5 mg protein/mL of liver microsomes (HLM Xenotech); tissue Xenotech; host or cells: liver microsomes
T1 sequence (P10635 whole entry): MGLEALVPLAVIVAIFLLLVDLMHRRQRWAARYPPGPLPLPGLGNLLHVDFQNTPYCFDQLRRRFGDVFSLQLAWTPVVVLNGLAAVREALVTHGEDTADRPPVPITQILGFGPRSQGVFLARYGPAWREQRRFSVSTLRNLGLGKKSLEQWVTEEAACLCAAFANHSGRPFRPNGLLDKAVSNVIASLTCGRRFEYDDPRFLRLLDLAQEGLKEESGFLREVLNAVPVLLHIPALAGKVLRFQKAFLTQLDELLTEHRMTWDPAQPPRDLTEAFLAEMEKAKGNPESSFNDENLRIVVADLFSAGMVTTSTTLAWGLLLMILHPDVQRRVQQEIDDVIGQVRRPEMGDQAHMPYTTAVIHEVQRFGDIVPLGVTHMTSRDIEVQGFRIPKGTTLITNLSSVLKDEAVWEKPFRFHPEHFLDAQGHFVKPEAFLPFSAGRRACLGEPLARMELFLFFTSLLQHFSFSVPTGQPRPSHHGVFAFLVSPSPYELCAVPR
Experimental: (§5) Cytochrome P450 (CYP) are a family of enzymes which play a major role in the metabolism of drugs. Assessment of the potential of a compound to inhibit a specific cytochrome P450 enzyme is important as co-administration of compounds may result in one or both inhibiting the other's metabolism.
(§6) All the incubations were performed in 250 µL reaction medium containing sodium/potassium phosphate buffer 50mM, pH 7.4, 3mM MgCl2, an NADPH regeneration system 1mM NADP, 10mM glucose 6-phosphate, and 1 U/mL glucose 6-phosphate dehydrogenase, 0.5 mg protein/mL of liver microsomes (HLM Xenotech), and a substrate cocktail composed of phenacetin for CYP1A2, diclofenac for CYP2C9, S-mephenytoin for CYP2C19, bufuralol for CYP2D6, midazolam for CYP3A4, and testosterone for CYP3A4. Final concentrations of substrate in the reaction medium were: 10 µM phenacetin, 10 µM diclofenac, 5 µM bufuralol, 100µM S-Mephenytoin, 5 µM midazolam, and 50 µM testosterone. Following incubation at 37°C for 25 min, the reactions were terminated by the addition of ice-cold acetonitrile and the plate was centrifuged at 4000 g for 60 min at 4°C.
(§7) Supernatant was taken and analyzed by UPLC/MS/MS for sample quantification The chromatographic equipment employed was an UPLC QSM Waters Acquity. Stationary phase: Reverse phase Acquity UPLC® BEHC18 1,7 µm (2.1 mm x 100 mm) (Waters) Mobile phase: 0.1% Formic acid water/0.1% formic acid in acetonitrile. Flow: 0.8 ml/min. Gradient: Table 10: UPLC gradient / CYP inhibition assay

CYP2C19 = target: T2, CYP2C19 (Homo sapiens, UniProt P33261); assay: as above
T2 construct: 0.5 mg protein/mL of liver microsomes (HLM Xenotech); tissue Xenotech; host or cells: liver microsomes
T2 sequence (P33261 whole entry): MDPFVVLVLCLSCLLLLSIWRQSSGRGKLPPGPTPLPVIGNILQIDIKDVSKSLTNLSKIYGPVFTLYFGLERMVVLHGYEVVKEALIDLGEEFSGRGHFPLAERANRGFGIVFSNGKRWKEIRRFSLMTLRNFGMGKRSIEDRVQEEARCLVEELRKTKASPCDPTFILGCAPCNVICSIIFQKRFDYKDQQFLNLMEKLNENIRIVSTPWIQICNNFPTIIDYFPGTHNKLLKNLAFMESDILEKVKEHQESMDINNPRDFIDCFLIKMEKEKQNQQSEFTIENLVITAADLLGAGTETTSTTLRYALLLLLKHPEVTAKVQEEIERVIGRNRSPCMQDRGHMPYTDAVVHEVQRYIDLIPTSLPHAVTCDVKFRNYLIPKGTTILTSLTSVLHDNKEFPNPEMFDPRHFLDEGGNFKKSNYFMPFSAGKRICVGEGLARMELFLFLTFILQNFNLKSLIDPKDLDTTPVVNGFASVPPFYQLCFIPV
Experimental: as §5, §6, §7

CYP3A4 = target: T3, CYP3A4 (Homo sapiens, UniProt P08684); assay: as above; settings: for inhibition at 25 min, 10 µM: human, liver microsomes
T3 construct: 0.5 mg protein/mL of liver microsomes (HLM Xenotech); tissue Xenotech; host or cells: liver microsomes
T3 sequence (P08684 whole entry): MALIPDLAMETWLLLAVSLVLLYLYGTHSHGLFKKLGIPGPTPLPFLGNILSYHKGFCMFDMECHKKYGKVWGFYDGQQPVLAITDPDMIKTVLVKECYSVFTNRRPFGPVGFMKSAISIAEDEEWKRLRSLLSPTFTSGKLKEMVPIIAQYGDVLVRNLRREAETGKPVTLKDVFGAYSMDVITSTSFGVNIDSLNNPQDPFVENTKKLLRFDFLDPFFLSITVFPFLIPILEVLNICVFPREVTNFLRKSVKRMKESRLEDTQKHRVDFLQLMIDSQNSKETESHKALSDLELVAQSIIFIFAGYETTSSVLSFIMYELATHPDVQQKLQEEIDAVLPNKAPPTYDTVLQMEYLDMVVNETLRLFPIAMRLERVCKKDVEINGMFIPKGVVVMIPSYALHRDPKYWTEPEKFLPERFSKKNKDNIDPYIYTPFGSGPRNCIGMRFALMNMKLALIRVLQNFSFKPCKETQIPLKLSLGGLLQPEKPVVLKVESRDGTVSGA
Experimental: as §5, §6, §7

CYP2C9 = target: T4, CYP2C9 (Homo sapiens, UniProt P11712); assay: as above
T4 construct: 0.5 mg protein/mL of liver microsomes (HLM Xenotech); tissue Xenotech; host or cells: liver microsomes
T4 sequence (P11712 whole entry): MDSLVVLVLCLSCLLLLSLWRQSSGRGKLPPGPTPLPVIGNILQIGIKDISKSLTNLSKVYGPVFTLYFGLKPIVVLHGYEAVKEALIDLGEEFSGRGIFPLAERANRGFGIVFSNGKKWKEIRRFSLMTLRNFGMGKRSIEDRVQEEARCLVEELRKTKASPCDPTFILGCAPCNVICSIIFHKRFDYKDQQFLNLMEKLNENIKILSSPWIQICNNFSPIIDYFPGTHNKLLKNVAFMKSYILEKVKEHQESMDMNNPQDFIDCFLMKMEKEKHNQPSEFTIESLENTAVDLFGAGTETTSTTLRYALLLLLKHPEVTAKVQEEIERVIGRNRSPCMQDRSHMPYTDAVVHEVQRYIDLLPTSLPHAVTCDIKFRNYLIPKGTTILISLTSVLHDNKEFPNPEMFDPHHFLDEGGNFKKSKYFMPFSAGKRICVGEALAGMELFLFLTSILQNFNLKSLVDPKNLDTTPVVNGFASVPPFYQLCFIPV
Experimental: as §5, §6, §7

CYP1A2 = target: T5, CYP1A2 (Homo sapiens, UniProt P05177); assay: as above
T5 construct: 0.5 mg protein/mL of liver microsomes (HLM Xenotech); tissue Xenotech; host or cells: liver microsomes
T5 sequence (P05177 1-516): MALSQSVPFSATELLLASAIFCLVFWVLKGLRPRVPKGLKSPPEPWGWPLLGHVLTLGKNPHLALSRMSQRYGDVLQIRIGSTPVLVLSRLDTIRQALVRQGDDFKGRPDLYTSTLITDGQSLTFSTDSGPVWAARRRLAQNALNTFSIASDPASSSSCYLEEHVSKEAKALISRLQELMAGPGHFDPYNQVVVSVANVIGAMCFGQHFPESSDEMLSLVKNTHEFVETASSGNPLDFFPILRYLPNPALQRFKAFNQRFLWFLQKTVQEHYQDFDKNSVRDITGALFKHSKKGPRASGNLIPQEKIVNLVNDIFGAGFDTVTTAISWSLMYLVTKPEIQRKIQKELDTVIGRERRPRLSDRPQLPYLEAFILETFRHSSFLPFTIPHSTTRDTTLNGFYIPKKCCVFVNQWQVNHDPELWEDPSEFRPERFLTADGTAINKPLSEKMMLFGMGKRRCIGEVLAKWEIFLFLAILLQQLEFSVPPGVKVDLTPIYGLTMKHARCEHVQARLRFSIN
Experimental: as §5, §6, §7

O=C(Cc1ccc2c(c1)OCCO2)Nc1nc(-c2ccc3c(c2)CCC(=O)N3)cs1 [Compound (If)]
fraction unbound at 4 h, 5 µM [1]: 0.0015 | Unbound fraction (Plasma protein [2]): 0.15% | fraction unbound at 4 h, 5 µM [3]: 0.0011 | Unbound fraction (Plasma protein [4]): 0.11% | Plasmatic stability ([5]; 10µM, t 0 min): 100.0 | Plasmatic stability ([5]; 10µM, t 60 min): 101.0 | Plasmatic stability ([5]; 10µM, t 120 min): 101.7 | Plasmatic stability ([5]; 10µM, t 360 min): 101.4 | Plasmatic stability ([5]; 100µM, t 0 min): 100.0 | Plasmatic stability ([5]; 100µM, t 60 min): 104.3 | Plasmatic stability ([5]; 100µM, t 120 min): 107.4 | Plasmatic stability ([5]; 100µM, t 360 min): 106.4 | plasmatic stability (in words) ([5]; human): high plasmatic stability | fraction unbound at 4 h, 5 µM [6]: 0.0046 | Unbound fraction (Plasma protein [7]): 0.46% | IC50 (CYP2D6; CYP2D6, substrate bufuralol): > 10 µM | inhibition at 25 min, 10 µM (CYP2D6; human, liver microsomes, pH 7.4, CYP2D6, 10µM, substrate bufuralol): -2.9% | IC50 (CYP2C19; CYP2C19, substrate S-mephenytoin): > 10 µM | inhibition at 25 min, 10 µM (CYP2C19; human, liver microsomes, pH 7.4, CYP2C19, 10µM, substrate S-mephenytoin): -18.8% | IC50 (CYP3A4; CYP3A4 (Midazolam)): > 10 µM | IC50 (CYP3A4; CYP3A4 (Testosterone), 25 min): > 10 µM | inhibition at 25 min, 10 µM (CYP3A4; pH 7.4, CYP3A4 (Midazolam)): -9.4% | inhibition at 25 min, 10 µM (CYP3A4; pH 7.4, CYP3A4 (Testosterone)): -12.8% | IC50 (CYP2C9; CYP2C9, substrate diclofenac): > 10 µM | inhibition at 25 min, 10 µM (CYP2C9; human, liver microsomes, pH 7.4, CYP2C9, 10µM, substrate diclofenac): -0.7% | IC50 (CYP1A2; CYP1A2, substrate phenacetin): > 10 µM | inhibition at 25 min, 10 µM (CYP1A2; human, liver microsomes, pH 7.4, CYP1A2, 10µM, substrate phenacetin): -5.3%
